Experimental findings from patent US10875860B2, “Azaindenoisoquinoline compounds and uses thereof” (Purdue Research Foundation, priority 2016, dated 2020) are described below.

In data set [1] the target is T1, Top1 (Homo sapiens, UniProt P11387).
T1 sequence (P11387 1-765): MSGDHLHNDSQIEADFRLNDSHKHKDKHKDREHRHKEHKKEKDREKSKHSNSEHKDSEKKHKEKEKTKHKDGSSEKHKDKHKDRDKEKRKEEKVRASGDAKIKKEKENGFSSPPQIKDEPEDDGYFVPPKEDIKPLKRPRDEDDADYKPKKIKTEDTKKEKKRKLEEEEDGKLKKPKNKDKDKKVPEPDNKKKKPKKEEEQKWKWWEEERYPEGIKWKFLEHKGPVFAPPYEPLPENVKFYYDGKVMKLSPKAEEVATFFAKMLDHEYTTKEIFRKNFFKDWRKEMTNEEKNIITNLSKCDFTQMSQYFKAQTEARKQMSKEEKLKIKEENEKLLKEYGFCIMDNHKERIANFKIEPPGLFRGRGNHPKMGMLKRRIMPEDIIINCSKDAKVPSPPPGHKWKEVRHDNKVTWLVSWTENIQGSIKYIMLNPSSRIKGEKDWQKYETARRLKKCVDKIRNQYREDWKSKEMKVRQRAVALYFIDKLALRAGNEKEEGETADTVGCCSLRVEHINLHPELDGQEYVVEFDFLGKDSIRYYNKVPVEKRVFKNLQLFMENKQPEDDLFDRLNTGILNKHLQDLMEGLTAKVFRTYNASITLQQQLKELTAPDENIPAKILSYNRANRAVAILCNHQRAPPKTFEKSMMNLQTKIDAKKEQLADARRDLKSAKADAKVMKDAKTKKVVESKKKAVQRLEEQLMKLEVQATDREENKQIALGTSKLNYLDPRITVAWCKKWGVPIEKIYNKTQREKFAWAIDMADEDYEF
As to the kind of experiment: Top1-mediated DNA cleavage assay. Set-up: Top1 inhibitory activity level / Top1 inhibitory activity score: key to the marks not given beside the values. To be noted: for Enzyme Inhibitory Activity Top1: DNA cleavage relative to 1 μM MJ-III-65 (19) and 1 μM camptothecin (18); for Top1 inhibitory activity level: series 1. The format is biochemical.

Data set [2] concerns the target Tdp1 (Homo sapiens, UniProt Q9NUW8). The experiment in a line: Recombinant Tdp1 assay. The data set is classed as biochemical.
Data set [3] addresses T2, recombinant human TDP2 (Homo sapiens, UniProt O95551).
T2 sequence (O95551 1-362): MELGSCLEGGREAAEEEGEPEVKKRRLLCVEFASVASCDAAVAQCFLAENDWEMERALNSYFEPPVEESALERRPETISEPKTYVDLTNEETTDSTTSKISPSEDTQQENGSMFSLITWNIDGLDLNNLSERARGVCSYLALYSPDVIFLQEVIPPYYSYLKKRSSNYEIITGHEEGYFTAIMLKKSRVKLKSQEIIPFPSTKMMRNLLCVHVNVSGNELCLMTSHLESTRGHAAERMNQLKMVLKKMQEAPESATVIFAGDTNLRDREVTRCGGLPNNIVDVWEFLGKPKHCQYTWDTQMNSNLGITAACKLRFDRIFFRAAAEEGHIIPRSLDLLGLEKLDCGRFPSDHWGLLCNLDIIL
The experiment in a line: Recombinant Tdp2 assay. The data set is classed as biochemical.
Description: TDP2 reactions were carried out as described previously with the following modifications. […] Reactions were terminated and treated similarly to whole-cell extract and recombinant Tdp1 reactions (see previous paragraph).

In data set [4] the test system is SN12C. As to the kind of experiment: NCI-60 cytotoxicity, SN12C. The following applies: Homo sapiens, read-out: Cytotoxicity (GI50) Renal SN12C.
The subject of data set [5] is MCF-7. The experiment in a line: NCI-60 cytotoxicity, MCF-7. The following applies: Homo sapiens, MCF7, read-out: Cytotoxicity (GI50) Breast MCF-7.
For data set [6], the system named is HOP-62. As to the kind of experiment: NCI-60 cytotoxicity, HOP-62. To be noted: Homo sapiens, HOP-62, read-out: Cytotoxicity (GI50) Lung HOP-62.
Data set [7] concerns SF-539. The experiment in a line: NCI-60 cytotoxicity, SF-539. The following applies: Homo sapiens, SF-539, read-out: Cytotoxicity (GI50) CNS SF-539.
Data set [8] has as its system UACC-62. As to the kind of experiment: NCI-60 cytotoxicity, UACC-62. To be noted: Homo sapiens, UACC-62, read-out: Cytotoxicity (GI50) Melanoma UACC-62.
Data set [9] has as its system OVCAR-3. The experiment in a line: NCI-60 cytotoxicity, OVCAR-3. The following applies: Homo sapiens, OVCAR-3, read-out: Cytotoxicity (GI50) Ovarian Ovcar-3.
Data set [10] concerns NCI-60 panel of human cancer cell lines. As to the kind of experiment: NCI-60 screen, mean graph midpoint over all cell lines. The following applies: for GI50: Homo sapiens.
The test system of data set [11] is HCT-116. As to the kind of experiment: NCI-60 cytotoxicity, HCT-116. The data set is classed as cell-based. The following applies: Homo sapiens, single determinations, Table 2, read-out: Cytotoxicity (GI50) Colon HCT-116.
Data set [12] has as its system DU-145. The experiment in a line: NCI-60 cytotoxicity, DU-145. To be noted: Homo sapiens, single determinations, Table 2, read-out: Cytotoxicity (GI50) Prostate DU-145. The format is cell-based.
Setting [13] is: semiquantitative scale, in duplicate, Table 1, read-out: Enzyme Inhibitory Activity Tdp1.
The mark [14] stands for this setting: semiquantitative scale, in duplicate, Table 1, read-out: Enzyme Inhibitory Activity Tdp2.
[15] abbreviates: read-out: Cytotoxicity (GI50) MGM.
Setting [16] is: determined in duplicate, Table 2, read-out: Enzyme Inhibitory Activity Tdp1 (IC50).
[17] abbreviates: determined in duplicate, Table 2, read-out: Enzyme Inhibitory Activity Tdp2 (IC50).
Where [18] appears, read: read-out: Enzyme Inhibitory Activity Tdp2 (IC50).

Where two headings read alike, the source gives them in different places. Bounds are passed on as bounds.

Chain of Tdp1 (Q9NUW8 whole entry): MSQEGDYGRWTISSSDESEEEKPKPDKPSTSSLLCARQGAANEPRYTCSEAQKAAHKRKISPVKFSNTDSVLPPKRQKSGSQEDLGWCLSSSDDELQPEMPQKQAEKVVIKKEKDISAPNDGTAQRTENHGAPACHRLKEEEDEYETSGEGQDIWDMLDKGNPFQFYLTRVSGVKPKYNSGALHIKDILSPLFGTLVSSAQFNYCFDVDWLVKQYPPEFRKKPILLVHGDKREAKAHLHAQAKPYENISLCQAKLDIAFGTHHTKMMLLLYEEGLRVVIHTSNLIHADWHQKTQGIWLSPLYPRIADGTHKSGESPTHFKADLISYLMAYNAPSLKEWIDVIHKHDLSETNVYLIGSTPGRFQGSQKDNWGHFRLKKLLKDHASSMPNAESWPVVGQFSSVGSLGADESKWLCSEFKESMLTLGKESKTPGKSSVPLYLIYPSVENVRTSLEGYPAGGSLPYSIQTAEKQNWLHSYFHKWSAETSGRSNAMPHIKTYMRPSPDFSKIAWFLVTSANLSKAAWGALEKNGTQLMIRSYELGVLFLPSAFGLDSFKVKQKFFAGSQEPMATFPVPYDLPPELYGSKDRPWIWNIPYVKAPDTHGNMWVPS

In the case of `COc1cnc2c(c1)C(=O)c1c-2n(CCCBr)c(=O)c2cc([N+](=O)[O-])ccc12` [Compound 7, 7-Aza-6-(3-bromopropyl)-5,6-dihydro-9-methoxy-3-nitro-5,11-dioxo-11H-indeno[1,2-c]isoquinoline], the melting point was 170 to 172 °C. In addition, in [1] (Table 1), the “Enzyme Inhibitory Activity Top1” value was “++”. In addition, the “Top1 inhibitory activity level” value in data set [1] is “++”. Also, in data set [2] (setting [13]), the IC50 fell in the range of 12000 to 37000 nM. Also, in [3] (setting [14]), the IC50 was 37000 to 111000 nM. The GI50 in data set [4] worked out at 269 nM. Further, the concentration for 50% growth inhibition (GI50) in data set [5] is 46 nM. Moreover, in [6], the GI50 worked out at 58 nM. Besides, the GI50 in data set [7] worked out at 279 nM. Also, the concentration for 50% growth inhibition (GI50) in [8] is 82 nM. In addition, in data set [9], the GI50 is 248 nM. The GI50 in data set [10] (setting [15]) was determined as 112 nM.

Take `COc1cnc2c(c1)C(=O)c1c-2n(CCCN2CCN(CCO)CC2)c(=O)c2cc([N+](=O)[O-])ccc12` [Compound 16, 7-Aza-5,6-dihydro-6-[3-(4-(2-hydroxyethyl)piperazin-1-yl)propyl]-9-methoxy-3-nitro-5,11-dioxo-11H-indeno[1,2-c]isoquinoline]: the melting point lay in the range of 214 to 216 °C. In addition, in [1] (Table 1), the “Enzyme Inhibitory Activity Top1” value is “+++”. The “Top1 inhibitory activity level” value in data set [1] is listed as “+++”. In addition, the IC50 in data set [2] (setting [13]) was over 111000 nM. Also, in [3] (setting [14]), the IC50 is over 111000 nM. Moreover, in [5], the GI50 is 142 nM. Besides, the GI50 in [6] was 2760 nM. Moreover, in data set [7], the GI50 amounted to 1700 nM. Moreover, in data set [8], the GI50 was determined as 1220 nM. For the same compound, in data set [9], the concentration for 50% growth inhibition (GI50) was 1460 nM. Also, in data set [10] (setting [15]), the GI50 was 1660 nM. Besides, the GI50 in [10] (read-out: MGM (GI50 mean graph midpoint)) is 1650 nM.

Compound `COc1cnc2c(c1)C(=O)c1c-2n(CCCN2CCC(N)CC2)c(=O)c2cc([N+](=O)[O-])ccc12` [Compound 17, 6-[3-(4-Aminopiperidin-1-yl)propyl]-7-aza-5,6-dihydro-9-methoxy-3-nitro-5,11-dioxo-11H-indeno[1,2-c]isoquinoline] came in with a melting point of 258 to 260 °C. For the same compound, the “Enzyme Inhibitory Activity Top1” value in data set [1] (Table 1) is “++”. The “Top1 inhibitory activity level” value in [1] is “++”. The IC50 in data set [2] (setting [13]) is 1000 to 12000 nM. Moreover, in data set [3] (setting [14]), the IC50 is 1000 to 12000 nM. Besides, in data set [10] (NCI-60 initial 1-concentration test), the “cytotoxicity in the one-concentration preliminary testing” value is listed as “low cytotoxicity”.

For `COc1cnc2c(c1)C(=O)c1c-2n(CCCN2CCOCC2)c(=O)c2cc(F)ccc12` [Compound 17a, 3-Fluoro-9-methoxy-6-(3-morpholinopropyl)-5H-pyrido[3′,2′:4,5]cyclopenta[1,2c]-isoquinoline-5,11(6H)-dione], in data set [1] (Table 2), the “Enzyme Inhibitory Activity Top1” value is “+++”. The IC50 in data set [2] (setting [16]) and in data set [3] (setting [17]) was over 111000 nM in each case. In addition, the concentration for 50% growth inhibition (GI50) turned out to be 115 nM in data set [11]; 341 nM in data set [12]; 320 nM in data set [4]; 44 nM in data set [5]; 187 nM in data set [6]; 228 nM in data set [7]. Besides, the 50% growth inhibitory concentration (GI50) is 235 nM in [8], 250 nM in data set [9] and 269 nM in data set [10] (setting [15]).

As for `COc1cnc2c(c1)C(=O)c1c-2n(CCCn2ccnc2)c(=O)c2cc(F)ccc12` [Compound 17b, 6-(3-(1H-Imidazol-1-yl)propyl)-3-fluoro-9-methoxy-5H-pyrido[3′,2′:4,5]-cyclo-penta[1,2-c]isoquinoline-5,11(6H)-dione], the “Enzyme Inhibitory Activity Top1” value in data set [1] (Table 2) is “+++”. The IC50 in data set [2] (setting [16]) and in data set [3] (setting [17]) was over 111000 nM each time. Besides, the GI50 in data set [11] is under 10 nM; in data set [12], under 10 nM; in data set [4], under 10 nM; in [5] it was under 10 nM; in data set [6], under 10 nM; in data set [7], 24 nM. Besides, the GI50 amounted to 16 nM in data set [8], 43 nM in [9] and 33 nM in [10] (setting [15]).

In the case of `COc1cnc2c(c1)C(=O)c1c-2n(CCCN2CCC(O)CC2)c(=O)c2cc(F)ccc12` [Compound 17d, 3-Fluoro-6-(3-(4-hydroxypiperidin-1-yl)propyl)-9-methoxy-5H-pyrido[3′,2′:4,5]-cyclopenta[1,2-c]-isoquinoline-5,11(6H)-dione], the “Enzyme Inhibitory Activity Top1” value in [1] (Table 2) is “+”. Further, the IC50 in [2] (setting [16]) and in [3] (setting [17]) was over 111000 nM each time. Further, the GI50 is 89 nM in data set [11]; 174 nM in [12]; 189 nM in data set [4]; 31 nM in [5]; 142 nM in [6]; 295 nM in [7]. In addition, the GI50 is 240 nM in data set [8], 254 nM in [9] and 199 nM in data set [10] (setting [15]).

Consider `COc1cnc2c(c1)C(=O)c1c-2n(CCCN2CCNCC2)c(=O)c2cc(F)ccc12` [Compound 17e, 3-Fluoro-9-methoxy-6-(3-(piperazin-1-yl)propyl)-5H-pyrido[3′,2′:4,5]cyclopenta-[1,2-c]isoquinoline-5,11(6H)-dione], for which the “Enzyme Inhibitory Activity Top1” value in data set [1] (Table 2) is “+”. The IC50 in data set [2] (setting [16]) is over 111000 nM; in data set [3] (setting [18]) it was 107000 ± 5200 nM. The GI50 in data set [11] stood at 91 nM; in [12] it was 62 nM; in data set [4] it was 80 nM; in data set [5], 34 nM; in data set [6], 66 nM; in data set [7], 532 nM. For the same compound, the 50% growth inhibitory concentration (GI50) in [8] is 1260 nM; in data set [9], 335 nM; in data set [10] (setting [15]) it was 218 nM.

Turning to `CCNCCCn1c2c(c3ccc(F)cc3c1=O)C(=O)c1cc(OC)cnc1-2` [Compound 17h, 6-(3-(Ethylamino)propyl)-3-fluoro-9-methoxy-5H-pyrido[3′,2′:4,5]cyclopenta[1,2-c]isoquinoline-5,11(6H)-dione], the “Enzyme Inhibitory Activity Top1” value in data set [1] (Table 2) was “++”. For the same compound, the figures for the IC50 in data set [2] (setting [16]) and in data set [3] (setting [18]) were over 111000 nM and 104000 nM, respectively. The GI50 in [11] is 136 nM; in data set [12] it was 215 nM; in data set [4], 151 nM; in data set [5] it was 42 nM; in [6] it was 149 nM; in [7] it was 320 nM. In addition, the GI50 stood at 341 nM in data set [8], 282 nM in data set [9] and 229 nM in [10] (setting [15]).
